Patent publication US20070244056A1 (priority 2004, published 2007)

Legend:
[1] = test system: Transgenic mice overexpressing human Cu/Zn-SOD G93A mutations; assay: Experimental model for amyotrophic lateral sclerosis (SOD1 G93A transgenic mice); format: in vivo; conditions: glatiramer acetate at both dosages; riluzole 30 mg/kg per day; during the course of treatment
Description: Transgenic mice overexpressing human Cu/Zn-SOD G93A mutations ((B6SJL-TgN (SOD1-G93A) 1 Gur) and non-transgenic B6/SJL mice are purchased from Jackson Laboratories (Bar Harbor, Me., USA). The second generation of G1H mice are used.
A group of 15 mice serve as controls.
The drugs are administered in drinking water starting at 60 days of age.
The clinical condition of the mice is monitored daily starting at 40 days. The onset of clinical signs is scored by examining the mice for tremors and/or shaking of the limbs, the position of one or both hind limbs (hanging rather than splaying out) when the mice are suspended in the air by their tail. The age of clinical onset was determined by the age (days) at which loss of splay or tremors of hind limbs is observed. The loss of righting reflex determines the end stage of the disease. The mice are sacrificed if they could not right themselves within 30 seconds when placed on either side on a flat surface.
Mice are observed daily (including weekends) and weighed weekly. Motor performance is assessed from 40 days of age using the rotarod apparatus to measure the night activity of the mice from 8 p.m.-8 a.m.
Mice were perfused transcardially with 4% paraformaldehyde/0.9% NaCl solution, brains and whole spinal cord were dissected out, frozen in liquid nitrogen and cut in transverse sections of 20 μm on a sliding microtome. […]

[2] = test system: human patients afflicted with an unspecified form of multiple sclerosis; conditions: administered alone; data of WO 00/74676; cited from earlier work
multiple sclerosis (MS) = conditions: daily subcutaneous injections, 20 mg/injection; cited from earlier work

| Molecule | running wheel activity (motor activity) [1] | EDSS score [2] | accumulation of hypointense lesions [2] | appearance of "black holes" (multiple sclerosis (MS)) | appearance of new lesions by magnetic resonance imaging (MRI) (multiple sclerosis (MS)) | progression of disability (multiple sclerosis (MS)) | relapse rates (multiple sclerosis (MS)) |
| --- | --- | --- | --- | --- | --- | --- | --- |
| Nc1nc2ccc(OC(F)(F)F)cc2s1 [riluzole, 2-amino-6-trifluoromethoxy benzothiazole] | more active during the course of treatment and maintain their motor activity longer than controls | No effect | showed a trend toward reduction | – | – | – | – |
| L-glutamic acid polymer with L-alanine, L-lysine and L-tyrosine, acetate (salt) [glatiramer acetate] | more active during the course of treatment and maintain their motor activity longer than controls | – | – | reduce | reduce | reduce | reduce |
